Columns and labels:
Type in all cases: cell-based, Enterobacteriaceae
[1] = test system: strains with impermeability-mediated resistance (IR); details: strains with impermeability-mediated resistance to carbapenems (IR)
Text: (§1) Optimization of the Detection Specificity by Introducing Specific Inhibitors Inhibition of Class B Strains (NDM, VIM, IMP) by Adding EDTA
(§2) Identical to that used to determine the temocillin MICs by agar dilution (example 1).
(§3) For each temocillin concentration, the following concentrations of active EDTA will be tested in the form of disodium EDTA: 0, 1.77, 2.12, 2.47 and 2.83 mmol/l.
(§4) Method: identical to the method used in example 1.

NDM-1 strains = details: class B CPEs of NDM type; proportionally to the EDTA concentration used
Text: as §1, §2, §3, §4

VIM strains = details: class B CPEs of VIM type; proportionally to the EDTA concentration used
Text: as §1, §2, §3, §4

Question: What does the source list for `O=C(O)CN(CCN(CC(=O)O)CC(=O)O)CC(=O)O` [EDTA]?
Answer: effect of EDTA on temocillin MIC [1]: slight increase in the MICs; effect of EDTA on temocillin MIC (NDM-1 strains): decrease in their MIC; effect of EDTA on temocillin MIC (VIM strains): decrease in their MIC
